The values that follow come from PubChem BioAssay (NCI).

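Dose response: 5 concentrations. Exposure: 48 h. Format: 96-well plates. Endpoint: linear interpolation; highest concentration if not reached. TGI denotes the concentration required for complete inhibition of growth.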 Bounds are passed on as bounds.

Holding throughout (assay): NCI tumour cell line growth inhibition, 48 h
The test system of experiment [1] is A549 NSCLC.
In experiment [2] the test system is SF-268 CNS.
Experiment [3] deals with SNB-19 CNS.
The test system of experiment [4] is EKVX NSCLC.
The test system of experiment [5] is CAKI-1 renal.
In experiment [6] the test system is IGROV1 ovarian.
Experiment [7] has as its system NCI/ADR-RES ovarian.
Experiment [8] has as its system T-47D breast.
The subject of experiment [9] is MDA-MB-435.
Experiment [10] relates to MDA-MB-231 breast.

Consider `Cc1cc(C)nc(NS(=O)(=O)c2ccc(NC(=O)c3ccc4nc5ccccc5c(Nc5ccc(S(=O)(=O)Nc6nc(C)cc(C)n6)cc5)c4c3)cc2)n1`, for which the TGI in [1], in experiment [2], in experiment [3], in [4], in [5] and in experiment [6] was over 100 µM in each case. Further, the TGI in experiment [7] is over 100 µM; in experiment [8] it was over 100 µM; in experiment [9] it was over 100 µM; in experiment [10] it was 53.9 µM.

Take `COc1cc(OC)cc(Oc2nc3c(N)cc(C(F)(F)F)cc3nc2-c2ccccc2)c1`: the TGI in experiment [2], in [3], in experiment [4], in [5], in [6] and in experiment [7] was over 100 µM in each case. Further, the TGI in experiment [8] was found to be 8.91 µM; in [9], 66.5 µM; in [10] it was 98.7 µM.

As for `CCOC(=O)c1c(CN2CCOCC2)n(Cc2ccccc2)c2c1cc(O)c1nc(C)c(C)nc12`, the TGI is over 100 µM in experiment [1]; 54.4 µM in experiment [2]; over 100 µM in experiment [3]; over 100 µM in [4]; 64.9 µM in experiment [5]; over 100 µM in [7]. For the same compound, the TGI in experiment [8], in [9] and in experiment [10] was over 100 µM throughout.

In the case of `NC(=O)N/N=C/c1ccccc1O`, the TGI in experiment [2], in [3], in [4], in experiment [5], in [6] and in experiment [7] was over 100 µM each time. The TGI in experiment [8], in experiment [9] and in [10] was over 100 µM each time.

For the compound `N=c1oc2ccc(Cl)cc2cc1C(=O)NC1CCCCC1`, the TGI in experiment [1], in experiment [2], in [3], in [5], in [6] and in experiment [7] was over 100 µM throughout. The TGI in [8], in experiment [9] and in [10] was over 100 µM each time.

For the compound `O=c1c2cc([N+](=O)[O-])cnc2sn1-c1ccc(Br)cc1`, the TGI is over 100 µM in experiment [1]; 75.1 µM in experiment [2]; over 100 µM in experiment [3]; over 100 µM in experiment [4]; over 100 µM in [6]; over 100 µM in experiment [7]. Further, the TGI in experiment [8] was 48.1 µM; in experiment [9], over 100 µM; in experiment [10], 73.4 µM.

On to `COc1ccc(NC(C)=O)cc1N1C(=O)/C(=C\c2cccc(Oc3ccccc3)c2)SC1c1ccccc1` (configuration not stated), for which the TGI was over 100 µM in [1]; over 100 µM in experiment [3]; over 100 µM in experiment [4]; over 100 µM in experiment [5]; over 100 µM in [6]; 54.8 µM in experiment [7]. Moreover, the TGI in [8], in [9] and in [10] was over 100 µM in each case.

As to `COc1ccc(-c2cc(-c3ccccc3)nc(N)n2)c(O)c1`, the TGI in [1], in experiment [2], in experiment [3], in experiment [4], in experiment [6] and in experiment [7] was over 100 µM in each case. Moreover, the TGI in experiment [8], in experiment [9] and in [10] was over 100 µM in each case.

Consider `O=C(O)CCCN=C(C(=NCCCC(=O)O)c1ccccc1)c1ccccc1`, for which the TGI in experiment [1], in experiment [2], in experiment [3], in [4], in experiment [6] and in experiment [7] was over 100 µM throughout. Also, the TGI in [8], in experiment [9] and in experiment [10] was over 100 µM throughout.

With `Cc1cc2nc3c(C#N)c4c(c(Nc5ccc(Cl)cc5)n3c2cc1C)CCC4`, the TGI in experiment [2] was 33.6 µM; in [4], over 100 µM; in experiment [5] it was 41.4 µM; in experiment [7], 48.1 µM; in experiment [8] it was 86.3 µM; in [9], over 100 µM. Also, the TGI in experiment [10] was determined as 42.8 µM.

As for `CCCNC(=O)c1cc(NC(=O)c2cc(NC(=O)CCS(=O)(=O)OC)cn2C)cn1C`, the TGI in experiment [1] is over 100 µM; in experiment [3] it was 4.82 µM; in experiment [4], over 100 µM; in [5] it was over 75.3 µM; in experiment [6], over 56.5 µM; in experiment [7], over 100 µM. Further, the TGI was 42.1 µM in experiment [8], 68.8 µM in experiment [9] and over 70.8 µM in experiment [10].

Consider `CSc1nc(Cl)c2c(n1)Sc1nc3ccccc3n1N=C2`, for which the TGI in experiment [1] is over 100 µM; in experiment [2], over 100 µM; in [3], over 100 µM; in experiment [5], 72.5 µM; in experiment [6], 36.7 µM; in experiment [7], 55.1 µM. The TGI in [8] is 57.2 µM; in experiment [9] it was over 100 µM; in [10], 50.9 µM.
